Laboratory results reported in ChEMBL document CHEMBL1201862, “PubChem BioAssay data set” (2004).
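Values below derive from 48-hour exposures of cells grown in 96-well plates, with endpoints linearly interpolated between the two concentrations bracketing the appropriate inhibition level. At the GI50, growth is halved.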 Activity calls are given as the source filed them. Cut-off read from the data, not from the text of the source: active = GI50 up to about 1.1 µM and inactive = higher.

Key:
Experiment in all cases: DTP human tumour cell line panel, 48 h
CAKI-1 = tested on: CAKI-1
HCC 2998 = tested on: HCC 2998
786-0 = tested on: 786-0
OVCAR-8 = tested on: OVCAR-8
PC-3 = tested on: PC-3
U-251 = tested on: U-251
OVCAR-4 = tested on: OVCAR-4
NCI-H522 = tested on: NCI-H522
SK-MEL-2 = tested on: SK-MEL-2
DU-145 = tested on: DU-145
EKVX = tested on: EKVX
HCT-15 = tested on: HCT-15
K562 = tested on: K562
NCI/ADR-RES = tested on: NCI/ADR-RES
A498 = tested on: A498
SK-OV-3 = tested on: SK-OV-3
RPMI-8226 = tested on: RPMI-8226
LOX IMVI = tested on: LOX IMVI
TK-10 = tested on: TK-10
UO-31 = tested on: UO-31

SMILES	GI50 (CAKI-1)	GI50 (HCC 2998)	GI50 (786-0)	GI50 (OVCAR-8)	GI50 (PC-3)	GI50 (U-251)	GI50 (OVCAR-4)	GI50 (NCI-H522)	GI50 (SK-MEL-2)	GI50 (DU-145)	GI50 (EKVX)	GI50 (HCT-15) [µM]	GI50 (K562)	GI50 (NCI/ADR-RES)	GI50 (A498)	GI50 (SK-OV-3)	GI50 (RPMI-8226)	GI50 (LOX IMVI)	GI50 (TK-10)	GI50 (UO-31)
CCOC(=O)C1(Cc2ccc(C)cc2)Cc2ccc(C)cc2C1=O (stereo not given)	19.5 µM (inactive)	16.8 µM (inactive)	31.1 µM (inactive)	27.2 µM (inactive)	26 µM (inactive)	10 µM (inactive)	36.4 µM (inactive)	6.34 µM (inactive)	14.6 µM (inactive)	41.4 µM (inactive)	36.7 µM (inactive)	7.85	1.88 µM (inactive)	5.01 µM (inactive)	23.5 µM (inactive)	24.4 µM (inactive)	12.2 µM (inactive)	12.4 µM (inactive)	23.5 µM (inactive)	38.5 µM (inactive)
CCC1CCC2c3c([nH]c4ccc(C)cc34)C3C(=O)N(N(C)C)C(=O)C3C2C1 (stereo not given)	> 34.4 µM (inactive)	35.2 µM (inactive)	7.24 µM (inactive)	22.2 µM (inactive)	6.22 µM (inactive)	19.5 µM (inactive)	34 µM (inactive)	0.748 µM (active)	24.6 µM (inactive)	29.9 µM (inactive)	26.7 µM (inactive)	5.78	2.62 µM (inactive)	4.35 µM (inactive)	> 100 µM (inactive)	> 100 µM (inactive)	19 µM (inactive)	13.7 µM (inactive)	32.4 µM (inactive)	> 75 µM (inactive)
C=CCN1C(=O)/C(=C/c2ccc(C)cc2)N=C1SC/C=C/C	> 100 µM (inactive)	41.7 µM (inactive)	29.9 µM (inactive)	30.1 µM (inactive)	33 µM (inactive)	27.2 µM (inactive)	41.9 µM (inactive)	29 µM (inactive)	24.8 µM (inactive)	55.3 µM (inactive)	27 µM (inactive)	33.4	25.9 µM (inactive)	47.3 µM (inactive)	24.3 µM (inactive)	> 100 µM (inactive)	14.5 µM (inactive)	19.6 µM (inactive)	> 100 µM (inactive)	47.3 µM (inactive)
COc1ccc(C2c3cc4c(c(OC)c3CC3OCC(=O)C32)OCO4)cc1OC (stereo not given)	0.0405 µM (active)	0.129 µM (active)	0.0348 µM (active)	0.0601 µM (active)	0.0619 µM (active)	0.0504 µM (active)	0.0364 µM (active)	< 0.01 µM (active)	0.78 µM (active)	0.0218 µM (active)	0.0605 µM (active)	0.0417	0.0504 µM (active)	0.0377 µM (active)	0.0783 µM (active)	0.0405 µM (active)	0.0501 µM (active)	0.0518 µM (active)	60.7 µM (inactive)	0.074 µM (active)
Cc1cc(S(=O)(=O)Nc2nc(Nc3ccc4ccccc4c3)n[nH]2)c(S)cc1Cl	52.8 µM (inactive)	61.4 µM (inactive)	47.3 µM (inactive)	64.3 µM (inactive)	33.6 µM (inactive)	39.9 µM (inactive)	79.1 µM (inactive)	30.3 µM (inactive)	24 µM (inactive)	54.3 µM (inactive)	> 100 µM (inactive)	42.3	> 100 µM (inactive)	> 100 µM (inactive)	26.4 µM (inactive)	46.2 µM (inactive)	> 100 µM (inactive)	45.6 µM (inactive)	> 100 µM (inactive)	> 100 µM (inactive)
